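Grown in 96-well plates, cells were treated for 48 hours with each compound at five concentrations. Insufficient inhibition: endpoint recorded as highest concentration tested. The concentration for 50% growth inhibition is given as GI50. TGI: concentration producing complete growth inhibition.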

Some test systems named below: BT-549 breast; MDA-N; SN12K1 renal; MDA-MB-231 breast; RXF-631 renal; P388/ADR leukemia; MCF7 breast; NCI/ADR-RES ovarian; DMS 114 small cell lung; T-47D breast; XF 498 CNS.
What all share (test): NCI tumour cell line growth inhibition, 48 h

Turning to `CCSc1nc(COC(=O)NC)c(COC(=O)NC)n1C`, the TGI in the experiment on BT-549 breast, in the experiment with MDA-N, in the experiment on SN12K1 renal, in the experiment on MDA-MB-231 breast, in the experiment with RXF-631 renal and in the experiment on P388/ADR leukemia was > 100 µM each time. Besides, the TGI in the experiment on MCF7 breast was > 100 µM; with NCI/ADR-RES ovarian, > 100 µM; with DMS 114 small cell lung it was > 76.2 µM; in the experiment on T-47D breast it was > 100 µM.

In the case of `CC(=O)Oc1ccccc1C(=O)C1c2cccc(O)c2C(=O)c2c(O)cccc21`, the results for the TGI with XF 498 CNS, with RXF-631 renal and in the experiment with DMS 114 small cell lung were 0.506 µM, 11.1 µM and 1.28 µM, respectively.

Turning to `CCCCCCCCCCCCC(=O)[O-].CCCCCCCCCCCCC(=O)[O-].CCCCCCCCCCCCC(=O)[O-].CCCCCCCCCCCCC(=O)[O-].[Mo+2].[Mo+2]`, the GI50 is 11.3 µM in the experiment with XF 498 CNS, 0.403 µM in the experiment with RXF-631 renal and 6.62 µM in the experiment on DMS 114 small cell lung. The TGI in the experiment on XF 498 CNS was determined as 23.4 µM; in the experiment on RXF-631 renal, 2.06 µM; in the experiment with DMS 114 small cell lung, 26 µM.

The record behind these values is PubChem BioAssay (NCI).
